Converted amounts (≈) assume the structure as drawn.
system: Hemozoin; assay: Inhibition of beta-hematin formation at 5 to 100 mM incubated for 48 hrs; conditions: dose 5-100 mM

Row | inhibition [%] | Compound
1 | < 98 | Cc1ccccc1NC(=O)c1ccc2[nH]c(-c3ccc([N+](=O)[O-])o3)nc2c1
2 | < 98 | COc1cccc(NC(=O)c2ccc3[nH]c(-c4ccc([N+](=O)[O-])o4)nc3c2)c1
3 | < 98 | Cc1ccc(NC(=O)c2ccc3[nH]c(-c4ccc([N+](=O)[O-])s4)nc3c2)c(C)c1
4 | < 98 | COc1cc(NC(=O)c2ccc3[nH]c(-c4ccc([N+](=O)[O-])o4)nc3c2)cc(OC)c1OC
5 | < 98 | Cc1ccc(NC(=O)c2ccc3[nH]c(-c4ccc([N+](=O)[O-])o4)nc3c2)cc1C
6 | < 98 | COc1cc(NC(=O)c2ccc3[nH]c(-c4ccc([N+](=O)[O-])s4)nc3c2)cc(OC)c1OC
7 | < 98 | Cc1ccc(NC(=O)c2ccc3[nH]c(-c4ccc([N+](=O)[O-])s4)nc3c2)cc1C
8 | < 98 | O=C(Nc1ccc(Br)cc1)c1ccc2[nH]c(-c3ccc([N+](=O)[O-])o3)nc2c1
9 | < 98 | COc1ccc(NC(=O)c2ccc3[nH]c(-c4ccc([N+](=O)[O-])s4)nc3c2)c(OC)c1
10 | < 98 | O=C(Nc1ccccc1Cl)c1ccc2[nH]c(-c3ccc([N+](=O)[O-])o3)nc2c1
11 | < 98 | O=C(Nc1ccc(Cl)cc1)c1ccc2[nH]c(-c3ccc([N+](=O)[O-])o3)nc2c1
12 | < 98 | Cc1cc(C)cc(NC(=O)c2ccc3[nH]c(-c4ccc([N+](=O)[O-])s4)nc3c2)c1

Continued, compound first:

Row | Compound | inhibition [%]
13 | Cc1ccc(C)c(NC(=O)c2ccc3[nH]c(-c4ccc([N+](=O)[O-])s4)nc3c2)c1 | < 98
14 | O=C(Nc1ccc(C(F)(F)F)cc1)c1ccc2[nH]c(-c3ccc([N+](=O)[O-])o3)nc2c1 | < 98
15 | O=C(Nc1ccc(Br)cc1)c1ccc2[nH]c(-c3ccc([N+](=O)[O-])s3)nc2c1 | < 98
16 | Cc1ccc(C)c(NC(=O)c2ccc3[nH]c(-c4ccc([N+](=O)[O-])o4)nc3c2)c1 | < 98
17 | COc1ccc(NC(=O)c2ccc3[nH]c(-c4ccc([N+](=O)[O-])o4)nc3c2)c(OC)c1 | < 98
18 | Cc1cc(C)cc(NC(=O)c2ccc3[nH]c(-c4ccc([N+](=O)[O-])o4)nc3c2)c1 | < 98
19 | COc1ccc(NC(=O)c2ccc3[nH]c(-c4ccc([N+](=O)[O-])s4)nc3c2)cc1Cl | < 98
20 | COc1ccc(NC(=O)c2ccc3[nH]c(-c4ccc([N+](=O)[O-])o4)nc3c2)cc1Cl | < 98
21 | O=C(Nc1ccccc1Cl)c1ccc2[nH]c(-c3ccc([N+](=O)[O-])s3)nc2c1 | < 98
22 | Cc1cccc(NC(=O)c2ccc3[nH]c(-c4ccc([N+](=O)[O-])o4)nc3c2)c1 | < 98
23 | COc1cccc(NC(=O)c2ccc3[nH]c(-c4ccc([N+](=O)[O-])s4)nc3c2)c1 | < 98
24 | Cc1cccc(NC(=O)c2ccc3[nH]c(-c4ccc([N+](=O)[O-])s4)nc3c2)c1 | < 98
25 | O=C(Nc1ccc(Cl)cc1)c1ccc2[nH]c(-c3ccc([N+](=O)[O-])s3)nc2c1 | < 98
26 | O=C(Nc1ccc(C(F)(F)F)cc1)c1ccc2[nH]c(-c3ccc([N+](=O)[O-])s3)nc2c1 | < 98
27 | Cc1ccccc1NC(=O)c1ccc2[nH]c(-c3ccc([N+](=O)[O-])s3)nc2c1 | < 98

system: not listed separately; assay: Selectivity index, ratio of EC50 for cytotoxicity against […] cells to EC50 for antiplasmodial activity against Plasmodium falciparum FCR-3 ATCC 30932 infected in human erythrocytes; assay type: toxicity, cell-based; conditions: mouse, read-out: Ratio EC50

Row | Compound | selectivity ratio
28 | C=CCn1c(=O)/c(=C2\Sc3ccccc3N2C)s/c1=C\c1cccc[n+]1C | > 100
29 | CCn1c(=O)/c(=C2\Sc3ccccc3N2C)s/c1=C\c1cccc(-c2ccccc2)[n+]1C | > 100
30 | CN1/C(=c2\s/c(=C\c3cccc[n+]3C)n(Cc3ccccc3)c2=O)Sc2ccccc21 | > 100
31 | CCn1c(=O)/c(=C2\Sc3ccccc3N2C)s/c1=C\c1cccc[n+]1C | > 100
32 | CCn1c(=O)/c(=C2\Sc3ccccc3N2C)s/c1=C\c1cc[n+](C)c2ccccc12 | > 100
33 | CCn1c(=O)/c(=C2\Sc3ccccc3N2C)s/c1=C/c1cc[n+](CCO)cc1 | > 100
34 | CCn1c(=O)/c(=C2\Sc3ccccc3N2C)s/c1=C/c1cc[n+](CCCCC(=O)O)cc1 | > 100
35 | CN1/C(=c2\s/c(=C\c3cc[n+](C)cc3)n(Cc3ccccc3)c2=O)Sc2ccccc21 | > 100
36 | CCn1c(=O)/c(=C2\Sc3ccccc3N2C)s/c1=C\c1cccc[n+]1CCO | > 100
37 | CCn1c(=O)/c(=C2\Sc3ccccc3N2C)s/c1=C\c1ccc2ccccc2[n+]1C | > 100
38 | C=CCn1c(=O)/c(=C2\Sc3ccccc3N2C)s/c1=C\c1cc[n+](C)cc1 | > 100
39 | CCn1c(=O)/c(=C2\Sc3ccccc3N2C)s/c1=C\c1cccc[n+]1CCCCC(=O)O | > 100
40 | CCn1c(=O)/c(=C2\Sc3ccccc3N2C)s/c1=C\c1cc[n+](C)cc1 | > 100
41 | CCn1c(=O)/c(=C2\Sc3ccccc3N2C)s/c1=C/c1cc[n+](C)c(-c2ccccc2)c1 | > 100

system: Plasmodium; assay: Antimalarial activity against Plasmodium; assay type: functional; conditions: not given

Row | IC50 [ng/mL] | Compound
42 | 3 (≈ 8.07 nM) | C/C(=N\NC(=S)NC(=O)c1ccccc1)c1nc2cc(Cl)ccc2[nH]1
43 | 3 (≈ 11.2 nM) | C/C(=N\NC(N)=S)c1nc2cc(Cl)ccc2[nH]1
44 | 3 (≈ 7.93 nM) | C/C(=N\NC(=S)Nc1ccc(Cl)cc1)c1nc2cc(Cl)ccc2[nH]1

system: Plasmodium falciparum; assay: Antiplasmodial activity against chloroquine sensitive Plasmodium falciparum FCR-3 infected in human erythrocytes incubated for 72 hrs by giemsa staining based assay; assay type: functional, organism-based; conditions: FCR-3, 72 h

Row | EC50 [nM] | Compound
45 | 4 | C=CCn1c(=O)/c(=C2\Sc3ccccc3N2C)s/c1=C\c1cccc[n+]1C
46 | 4 | CN1/C(=c2\s/c(=C\c3cccc[n+]3C)n(Cc3ccccc3)c2=O)Sc2ccccc21
47 | 4 | CCn1c(=O)/c(=C2\Sc3ccccc3N2C)s/c1=C/c1cc[n+](CCO)cc1
48 | 4 | CN1/C(=c2\s/c(=C\c3cc[n+](C)cc3)n(Cc3ccccc3)c2=O)Sc2ccccc21
49 | 4 | CCn1c(=O)/c(=C2\Sc3ccccc3N2C)s/c1=C\c1cc[n+](C)cc1

The next lines start with the compound.

Row | Compound | EC50 [nM]
50 | CCn1c(=O)/c(=C2\Sc3ccccc3N2C)s/c1=C\c1cccc(-c2ccccc2)[n+]1C | 4
51 | CCn1c(=O)/c(=C2\Sc3ccccc3N2C)s/c1=C\c1cccc[n+]1C | 4
52 | CCn1c(=O)/c(=C2\Sc3ccccc3N2C)s/c1=C\c1cc[n+](C)c2ccccc12 | 4
53 | CCn1c(=O)/c(=C2\Sc3ccccc3N2C)s/c1=C/c1cc[n+](CCCCC(=O)O)cc1 | 4
54 | CCn1c(=O)/c(=C2\Sc3ccccc3N2C)s/c1=C\c1cccc[n+]1CCO | 4
55 | CCn1c(=O)/c(=C2\Sc3ccccc3N2C)s/c1=C\c1ccc2ccccc2[n+]1C | 4
56 | C=CCn1c(=O)/c(=C2\Sc3ccccc3N2C)s/c1=C\c1cc[n+](C)cc1 | 4
57 | CCn1c(=O)/c(=C2\Sc3ccccc3N2C)s/c1=C\c1cccc[n+]1CCCCC(=O)O | 4
58 | CCn1c(=O)/c(=C2\Sc3ccccc3N2C)s/c1=C/c1cc[n+](C)c(-c2ccccc2)c1 | 4

Reference: ChEMBL document CHEMBL4673175, “An epigrammatic status of the azole-based antimalarial drugs” (RSC Med Chem, 2020)
